Consider 22 molecules from patent publication US8309718B2, “4-pyrazolyl-N-arylpyrimidin-2-amines and 4-pyrazolyl-N-heteroarylpyrimidin-2-amines as janus kinase inhibitors” (Incyte Corporation, priority 2007, dated 2012).

The test addresses T1, human JAK2 (Homo sapiens, UniProt O60674).
T1 construct: JAK2 (a.a. 828-1132); His tag (N); made in house; host or cells: insect cells (baculovirus)
The test is described as follows: In vitro JAK kinase assay (HTRF, phosphorylation of biotinylated peptide). The format is biochemical. The note with it: catalytic domain a.a. 828-1132, 30 μM ATP, 500 nM peptide, room temperature 1 hr; read-out: JAK-2 IC50. A digest of the protocol:
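His-tagged human JAK2 catalytic domain (a.a. 828-1132), baculovirus/insect-cell expressed; phosphorylation of 500 nM biotinylated peptide at 30 μM ATP in 50 mM Tris pH 7.8, 100 mM NaCl, 5 mM DTT, 0.01% BSA. 1 h at room temperature, EDTA stop, HTRF read (Eu-Py20/SA-APC); IC50.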

pIC50: −log10 of the molar value.

T1 sequence (O60674 828-1132): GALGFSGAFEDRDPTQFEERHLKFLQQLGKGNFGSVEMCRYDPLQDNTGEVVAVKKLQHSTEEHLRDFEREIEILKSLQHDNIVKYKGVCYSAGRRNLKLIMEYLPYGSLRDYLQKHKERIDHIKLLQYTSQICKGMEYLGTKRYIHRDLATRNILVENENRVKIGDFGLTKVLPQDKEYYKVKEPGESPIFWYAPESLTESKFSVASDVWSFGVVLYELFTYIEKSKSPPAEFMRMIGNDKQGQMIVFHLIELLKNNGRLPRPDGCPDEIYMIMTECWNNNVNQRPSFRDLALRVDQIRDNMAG

Usually pIC50 stands for the negative decadic logarithm of the IC50, by convention in mol/L. Regarding `N#CCC(CC1CCN(S(=O)(=O)C2CC2)CC1)n1cc(-c2ccnc(Nc3ccc(N4CCOCC4=O)cc3)n2)cn1` (racemic) [Example 97, 4-(1-(cyclopropylsulfonyl)piperidin-4-yl)-3-(4-(2-(4-(3-oxomorpholino)phenylamino)pyrimidin-4-yl)-1H-pyrazol-1-yl)butanenitrile], the negative-log IC50 (pIC50) was > 7.00.

With `COC(=O)Nc1ccc(Nc2ncc(C)c(-c3cnn(C(CC#N)C4CCCC4)c3)n2)cc1` (racemic) [Example 90, Methyl 4-(4-(1-(2-cyano-1-cyclopentylethyl)-1H-pyrazol-4-yl)-5-methylpyrimidin-2-ylamino)phenylcarbamate], the negative-log IC50 (pIC50) is > 7.00.

For the molecule `N#CCC(C1CC1)n1cc(-c2ccnc(Nc3ccc(C(=O)N4CCOCC4)cc3)n2)cn1` (racemic) [Example 260, 3-cyclopropyl-3-(4-(2-(4-(morpholine-4-carbonyl)phenylamino)pyrimidin-4-yl)-1H-pyrazol-1-yl)propanenitrile], the pIC50 was > 7.00.

As to `N#CCC(C1CCN(c2ncc(F)cn2)CC1)n1cc(-c2ccnc(Nc3ccc(N4CCOCC4)cc3)n2)cn1` (racemic) [Example 23, 3-(1-(5-fluoropyrimidin-2-yl)piperidin-4-yl)-3-(4-(2-(4-morpholinophenylamino)pyrimidin-4-yl)-1H-pyrazol-1-yl)propanenitrile], the negative logarithm of the IC50 (pIC50) was > 7.00.

`N#CCC(C1CCCC1)n1cc(-c2ccnc(Nc3ccc(N4CCCCC4=O)cc3)n2)cn1` (racemic) [Example 105, 3-cyclopentyl-3-(4-(2-(4-(2-oxopiperidin-1-yl)phenylamino)pyrimidin-4-yl)-1H-pyrazol-1-yl)propanenitrile]: the pIC50 was > 7.00.

As for `Cc1cnc(Nc2ccc(C(=O)O)cc2)nc1-c1cnn(C(CC#N)C2CCCC2)c1` (racemic) [Example 81, 4-(4-(1-(2-cyano-1-cyclopentylethyl)-1H-pyrazol-4-yl)-5-methylpyrimidin-2-ylamino)benzoic acid], the pIC50 is > 7.00.

On to `N#CCC(C1CCCC1)n1cc(-c2ccnc(Nc3cccc(NC(=O)CN4CC[C@@H](O)C4)c3)n2)cn1` (mixture of isomers) [Example 237, N-(3-(4-(1-(2-cyano-1-cyclopentylethyl)-1H-pyrazol-4-yl)pyrimidin-2-ylamino)phenyl)-2-((R)-3-hydroxypyrrolidin-1-yl)acetamide], for which the pIC50 is > 7.00.

As to `N#CCC(C1CCN(C(=O)c2ccccc2)CC1)n1cc(-c2ccnc(Nc3ccc(N4CCOCC4)cc3)n2)cn1` (racemic) [Example 27, 3-(1-benzoylpiperidin-4-yl)-3-(4-(2-(4-morpholinophenylamino)pyrimidin-4-yl)-1H-pyrazol-1-yl)propanenitrile], the negative-log IC50 (pIC50) was > 7.00.

With `COc1cnc(Nc2ccc(N3CCOC3=O)cc2)nc1-c1cnn(C(CC#N)C2CCCC2)c1` (racemic) [Example 136, 3-cyclopentyl-3-(4-(5-methoxy-2-(4-(2-oxooxazolidin-3-yl)phenylamino)pyrimidin-4-yl)-1H-pyrazol-1-yl)propanenitrile], the pIC50 is > 7.00.

`N#CCC(C1CCCC1)n1cc(-c2ccnc(Nc3ccc(NS(=O)(=O)c4ccc(N5CCOCC5)nc4)cc3)n2)cn1` (racemic) [Example 197, N-(4-(4-(1-(2-cyano-1-cyclopentylethyl)-1H-pyrazol-4-yl)pyrimidin-2-ylamino)phenyl)-6-morpholinopyridine-3-sulfonamide]: the pIC50 is > 7.00.

With `COc1cnc(Nc2cccc([N+](=O)[O-])c2)nc1-c1cnn(C(CC#N)C2CC2)c1` (racemic) [Example 321, 3-cyclopropyl-3-(4-{5-methoxy-2-[(3-nitrophenyl)amino]pyrimidin-4-yl}-1H-pyrazol-1-yl)propanenitrile], the negative logarithm of the IC50 (pIC50) was > 7.00.

As to `N#CCC(C1CCCC1)n1cc(-c2ccnc(Nc3ccc(N4CCCOC4=O)cc3)n2)cn1` (racemic) [Example 106, 3-cyclopentyl-3-(4-(2-(4-(2-oxo-1,3-oxazinan-3-yl)phenylamino)pyrimidin-4-yl)-1H-pyrazol-1-yl)propanenitrile], the pIC50 was > 7.00.

Regarding `Cc1cc(OC2CCC(CC#N)(n3cc(-c4ccnc(Nc5ccc(N6CCCCC6=O)cc5)n4)cn3)CC2)no1` (single isomer, unassigned) [Example 245, 2-(4-(5-methylisoxazol-3-yloxy)-1-(4-(2-(4-(2-oxopiperidin-1-yl)phenylamino)pyrimidin-4-yl)-1H-pyrazol-1-yl)cyclohexyl)acetonitrile], the pIC50 was > 7.00.

For `CN(C)S(=O)(=O)Nc1ccc(Nc2nccc(-c3cnn(C(CC#N)C4CCCC4)c3)n2)cc1` (racemic) [Example 186, NA-(4-(4-(1-(2-cyano-1-cyclopentylethyl)-1H-pyrazol-4-yl)pyrimidin-2-ylamino)phenyl)-N,N-dimethylsulfamide], the pIC50 is > 7.00.

Turning to `COc1cnc(Nc2ccc(C(=O)N(C)C)cc2)nc1-c1cnn(C(CC#N)C2CCCC2)c1` (racemic) [Example 104, 4-(4-(1-(2-cyano-1-cyclopentylethyl)-1H-pyrazol-4-yl)-5-methoxypyrimidin-2-ylamino)-N,N-dimethylbenzamide], the negative-log IC50 (pIC50) is > 7.00.

Regarding `N#CCC1(n2cc(-c3ccnc(Nc4ccc(C(=O)N5CC[C@@H](O)C5)cc4)n3)cn2)CC(C#N)C1` (single isomer, unassigned) [Example 290], the negative-log IC50 (pIC50) is > 7.00.

For the molecule `N#CCC1(n2cc(-c3ccnc(Nc4ccc(-c5cnco5)cc4)n3)cn2)CC(C#N)C1` (single isomer, unassigned) [Example 342, 3-(cyanomethyl)-3-[4-(2-{[4-(1,3-oxazol-5-yl)phenyl]amino}pyrimidin-4-yl)-1H-pyrazol-1-yl]cyclobutanecarbonitrile], the pIC50 was > 7.00.

As for `N#CCC(C1CC1)n1cc(-c2ccnc(Nc3ccc(C(=O)N4CC[C@@H](O)C4)cc3)n2)cn1` (mixture of isomers) [Example 266, 3-cyclopropyl-3-(4-(2-(4-((R)-3-hydroxypyrrolidine-1-carbonyl)phenylamino)pyrimidin-4-yl)-1H-pyrazol-1-yl)propanenitrile], the negative logarithm of the IC50 (pIC50) was > 7.00.

With `N#CCC(C1CCCC1)n1cc(-c2ccnc(Nc3ccccc3)n2)cn1` (racemic) [Example 36, 3-cyclopentyl-3-(4-(2-(phenylamino)pyrimidin-4-yl)-1H-pyrazol-1-yl)propanenitrile], the pIC50 is > 7.00.

`CN(C)C(=O)c1ccc(Nc2nccc(-c3cnn(C(CC#N)CC4CCN(C(=O)c5ccc(F)cc5F)CC4)c3)n2)cc1` (racemic) [Example 59, 4-(4-(1-(1-cyano-3-(1-(2,4-difluorobenzoyl)piperidin-4-yl)propan-2-yl)-1H-pyrazol-4-yl)pyrimidin-2-ylamino)-N,N-dimethylbenzamide]: the pIC50 is > 7.00.

In the case of `N#CCC1(n2cc(-c3ccnc(Nc4ccc(N5CCCCC5=O)cc4)n3)cn2)CC(C#N)C1` (single isomer, unassigned) [Example 336, 3-(cyanomethyl)-3-[4-(2-{[4-(2-oxopiperidin-1-yl)phenyl]amino}pyrimidin-4-yl)-1H-pyrazol-1-yl]cyclobutanecarbonitrile], the pIC50 is > 7.00.

For the molecule `CC(=O)N[C@@H]1CCN(C(=O)c2ccc(Nc3nccc(-c4cnn(C(CC#N)C5CC5)c4)n3)cc2)C1` (mixture of isomers) [Example 268, N-((3R)-1-(4-(4-(1-(2-cyano-1-cyclopropylethyl)-1H-pyrazol-4-yl)pyrimidin-2-ylamino)benzoyl)pyrrolidin-3-yl)acetamide], the negative logarithm of the IC50 (pIC50) was > 7.00.
